From patent EP0073997A1, “Substituted 2-amino-3,4-dihydro-pyridine derivatives, process for their preparation and their use in medicines” (BAYER AG, priority 1981, dated 1983)

Tested on: Wistar-Ratten
Experiment: Cholesterol load test: liver cholesterol after oral cholesterol load
Assay type: in vivo
Conditions: Dosis 10 mg/kg p.o.; given together with cholesterol in 0,75 % tragacanth suspension; liver cholesterol after 24 h
Experimental: Cholesterol- bzw. Fettbelastungstests wurden an nüchternen männlichen oder weiblichen Wistar-Ratten mit einem Körpergewicht zwischen 130-230 g durchgeführt.
Cholesterol-Belastung: • Cholesterol und die zu prüfende Substanz wurden in 0,75 %iger Traganth-Suspension gleichzeitig oral appliziert. Nach 24 h wurden die Tiere getötet und der Cholesterolgehalt in der Leber bestimmt. Cholesterol wurde nach der Liebermann-Burchard-Methode mit der Testkombination von Boehringer Mannheim bestimmt. Kontrolltiere erhielten ein entsprechendes Volumen Cholesterol-Traganth-Suspension ohne Testsubstanz. Zur Kontrolle des Cholesterol-Anstiegs als Folge der Cholesterol-Belastung wurde einer weiteren Kontrollgruppe Traganth-Suspension ohne Cholesterol oral appliziert.

## 6-Methyl-2-(4-phenylpiperazino)-4,5-bis(2-pyrrolidinomethylphenyl)-3,4-dihydropyridin [Beispiel 18]
  Verminderung des Lebercholesterinanstiegs im Vergleich zur Kontrolle nach oraler Cholesterinbelastung in Prozent: 34,1%

## Clc1ccc(C2CC(N3CCN(c4ccccc4)CC3)=NC3=C2c2ccccc2CC3)cc1 (stereo not drawn) [Beispiel 1, 4-(4-Chlorphenyl)-2-(4-phenylpiperazino)-3,4,5,6-tetrahydronaphthalino(a)pyridin]
  Verminderung des Lebercholesterinanstiegs im Vergleich zur Kontrolle nach oraler Cholesterinbelastung in Prozent: 51,7%

## Clc1ccc(C2=CC(c3ccc(Cl)cc3)CC(N3CCN(c4ccccc4)CC3)=N2)cc1 (stereo not drawn) [Beispiel 8]
  Verminderung des Lebercholesterinanstiegs im Vergleich zur Kontrolle nach oraler Cholesterinbelastung in Prozent: 21,3%

## CC(=O)OCc1ccc(C2=C(C)N=C(N3CCN(c4ccccc4)CC3)CC2c2ccc(COC(C)=O)cc2)cc1 (stereo not drawn) [Beispiel 9]
  Verminderung des Lebercholesterinanstiegs im Vergleich zur Kontrolle nach oraler Cholesterinbelastung in Prozent: 17,7%

## CC1=C(c2cccc(CO)c2)C(c2cccc(CO)c2)CC(N2CCN(c3ccccc3)CC2)=N1 (stereo not drawn) [Beispiel 13]
  Verminderung des Lebercholesterinanstiegs im Vergleich zur Kontrolle nach oraler Cholesterinbelastung in Prozent: 37,9%

## CC1=C(c2ccc(N(C)C)cc2)C(c2ccc(CO)cc2)CC(N2CCN(c3ccccc3)CC2)=N1 (stereo not drawn) [Beispiel 16]
  Verminderung des Lebercholesterinanstiegs im Vergleich zur Kontrolle nach oraler Cholesterinbelastung in Prozent: 36,7%

## CC1=C(c2ccccc2)C(c2cccc(CN3CCCC3)c2)CC(N2CCN(c3ccccc3)CC2)=N1 (stereo not drawn) [Beispiel 17, 6-Methyl-5-phenyl-2-(4-phenylpiperazino)-4-(3-pyrro-lidinomethylphenyl)-3,4-dihydropyridin]
  Verminderung des Lebercholesterinanstiegs im Vergleich zur Kontrolle nach oraler Cholesterinbelastung in Prozent: 22,9%

## CC1=C(c2ccccc2)C(c2cccc(COC(=O)CCCC(=O)O)c2)CC(N2CCN(c3ccccc3)CC2)=N1 (stereo not drawn) [Beispiel 19, 4-(3-(5-Carboxybutyryloxymethyl)-phenyl)-6-methyl-5-phenyl-2-(4-phenylpiperazino)-3,4-dihydropyridin]
  Verminderung des Lebercholesterinanstiegs im Vergleich zur Kontrolle nach oraler Cholesterinbelastung in Prozent: 36,3%

## C=CCC1C(N2CCN(c3ccccc3)CC2)=NC(C)=C(c2ccccc2)C1c1ccccc1 (stereo not drawn) [Beispiel 21]
  Verminderung des Lebercholesterinanstiegs im Vergleich zur Kontrolle nach oraler Cholesterinbelastung in Prozent: 34,9%

## COc1ccc(C2=C(C)N=C(N3CCCC3)C(C)C2c2ccc(OC)cc2)cc1 (stereo not drawn) [Beispiel 25]
  Verminderung des Lebercholesterinanstiegs im Vergleich zur Kontrolle nach oraler Cholesterinbelastung in Prozent: 22,6%

## CC1=C(c2ccc(N(C)C)cc2)C(c2ccc(Cl)cc2)C(CC(=O)OC(C)(C)C)C(N2CCN(c3ccccc3)CC2)=N1 (stereo not drawn) [Beispiel 29]
  Verminderung des Lebercholesterinanstiegs im Vergleich zur Kontrolle nach oraler Cholesterinbelastung in Prozent: 12,0%

## CC1=C(c2ccccc2)C(c2ccccc2)C(CO)C(N2CCN(c3ccccc3)CC2)=N1 (stereo not drawn) [Beispiel 34]
  Verminderung des Lebercholesterinanstiegs im Vergleich zur Kontrolle nach oraler Cholesterinbelastung in Prozent: 23,9%
